≈ marks a conversion by molar mass, not a printed value. Blank lines part the entries; values can stand above or below the molecule they belong to.
Tests used:
Assay in all cases: in vitro antibacterial evaluation, MIC by broth dilution
Type in all cases: cell-based
Enterococcus sp. = conditions: broth dilution, 18 hours at 35° C.
How it was run: (§1)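 Broth dilution per NCCLS standard M7-A2 in Muller-Hinton II […], with an inoculum of 5×10^5 CFU/mL and antibiotic spanning 64-0.06 μg/mL. The MIC is the lowest concentration that inhibits growth of the organism.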

Escherichia coli = conditions: 18 hours at 35° C., strain ATCC 25922
How it was run: as §1

Staphylococcus sp. = conditions: broth dilution, 18 hours at 35° C.
How it was run: as §1

Streptococcus sp. = conditions: broth dilution, 18 hours at 35° C.
How it was run: as §1

[1] = Enterococcus faecalis (ATCC 29212)
[2] = Enterococcus faecalis (GC 2242)
[3] = Enterococcus faecalis (GC 4552)
[4] = Enterococcus faecalis (GC 4553)
[5] = Enterococcus faecalis (GC 4554)
[6] = inoculum 5×10^5 CFU/mL, strain GC 1131
[7] = Streptococcus agalactiae (GC 4564)
[8] = Streptococcus pneumoniae (GC 4565)
[9] = Streptococcus pyogenes (ID-3187)

MIC Enterococcus avium (GC 4558) (Enterococcus sp.; Enterococcus avium (GC 4558)): 2 µg/mL (≈ 1.42 µM)
MIC Enterococcus faecalis (ATCC 29212) (Enterococcus sp.; [1]): 2 µg/mL (≈ 1.42 µM)
MIC Enterococcus faecalis (GC 2242) (Enterococcus sp.; [2]): 2 µg/mL (≈ 1.42 µM)
MIC Enterococcus faecalis (GC 4552) (Enterococcus sp.; [3]): 2 µg/mL (≈ 1.42 µM)
MIC Enterococcus faecalis (GC 4553) (Enterococcus sp.; [4]): 2 µg/mL (≈ 1.42 µM)
MIC Enterococcus faecalis (GC 4554) (Enterococcus sp.; [5]): 2 µg/mL (≈ 1.42 µM)
MIC Enterococcus faecium (GC 2243) (Enterococcus sp.; Enterococcus faecium (GC 2243)): 1 µg/mL (≈ 0.712 µM)
MIC Enterococcus faecium (GC 4556) (Enterococcus sp.; Enterococcus faecium (GC 4556)): 2 µg/mL (≈ 1.42 µM)
MIC Enterococcus faecium (GC 4557) (Enterococcus sp.; Enterococcus faecium (GC 4557)): 1 µg/mL (≈ 0.712 µM)
MIC Enterococcus faecalis (ATCC 29212) (Enterococcus sp.; strain ATCC 29212): 2 µg/mL (≈ 1.42 µM)
MIC Enterococcus faecalis (GC 2242) (Enterococcus sp.; strain GC 2242): 2 µg/mL (≈ 1.42 µM)
MIC Enterococcus faecium (GC 2243) (Enterococcus sp.; strain GC 2243): 1 µg/mL (≈ 0.712 µM)
MIC Enterococcus faecalis (GC 4552) (Enterococcus sp.; strain GC 4552): 2 µg/mL (≈ 1.42 µM)
MIC Enterococcus faecalis (GC 4553) (Enterococcus sp.; strain GC 4553): 2 µg/mL (≈ 1.42 µM)
MIC Enterococcus faecalis (GC 4554) (Enterococcus sp.; strain GC 4554): 2 µg/mL (≈ 1.42 µM)
MIC Enterococcus faecium (GC 4556) (Enterococcus sp.; strain GC 4556): 2 µg/mL (≈ 1.42 µM)
MIC Enterococcus faecium (GC 4557) (Enterococcus sp.; strain GC 4557): 1 µg/mL (≈ 0.712 µM)
MIC Enterococcus avium (GC 4558) (Enterococcus sp.; strain GC 4558): 2 µg/mL (≈ 1.42 µM)
MIC Escherichia coli (ATCC 25922) (Escherichia coli): 16 µg/mL (≈ 11.4 µM)
MIC Coagulase Negative Staphylococcus (GC 4547) (Staphylococcus sp.): 1 µg/mL (≈ 0.712 µM)
MIC Coagulase Negative Staphylococcus (GC 4548) (Staphylococcus sp.): <0.5 µg/mL
MIC Coagulase Negative Staphylococcus (GC 4549) (Staphylococcus sp.): 1 µg/mL (≈ 0.712 µM)
MIC Coagulase Negative Staphylococcus (GC 4551) (Staphylococcus sp.): 1 µg/mL (≈ 0.712 µM)
MIC Coagulase Negative Staphylococcus (ID-3941) (Staphylococcus sp.): 1 µg/mL (≈ 0.712 µM)
MIC Staphylococcus aureus (ATCC 29213) (Staphylococcus sp.): 1 µg/mL (≈ 0.712 µM)
MIC Staphylococcus aureus (GC 1131) (Staphylococcus sp.): 1 µg/mL (≈ 0.712 µM)
MIC Staphylococcus aureus (GC 4541) (Staphylococcus sp.): 1 µg/mL (≈ 0.712 µM)
MIC Staphylococcus aureus (GC 4542) (Staphylococcus sp.): 1 µg/mL (≈ 0.712 µM)
MIC Staphylococcus aureus (GC 4544) (Staphylococcus sp.): 1 µg/mL (≈ 0.712 µM)
MIC Staphylococcus aureus (GC 4545) (Staphylococcus sp.): 1 µg/mL (≈ 0.712 µM)
MIC Staphylococcus aureus-SMITH (GC 4543) (Staphylococcus sp.): 1 µg/mL (≈ 0.712 µM)
MIC Staphylococcus aureus (GC 1131) (Staphylococcus sp.; [6]): 1 µg/mL (≈ 0.712 µM)
MIC Staphylococcus aureus (ATCC 29213) (Staphylococcus sp.; strain ATCC 29213): 1 µg/mL (≈ 0.712 µM)
MIC Staphylococcus aureus (GC 4541) (Staphylococcus sp.; strain GC 4541): 1 µg/mL (≈ 0.712 µM)
MIC Staphylococcus aureus (GC 4542) (Staphylococcus sp.; strain GC 4542): 1 µg/mL (≈ 0.712 µM)
MIC Staphylococcus aureus (GC 4544) (Staphylococcus sp.; strain GC 4544): 1 µg/mL (≈ 0.712 µM)
MIC Staphylococcus aureus (GC 4545) (Staphylococcus sp.; strain GC 4545): 1 µg/mL (≈ 0.712 µM)
MIC Coagulase Negative Staphylococcus (GC 4547) (Staphylococcus sp.; strain GC 4547): 1 µg/mL (≈ 0.712 µM)
MIC Coagulase Negative Staphylococcus (GC 4548) (Staphylococcus sp.; strain GC 4548): <0.5 µg/mL
MIC Coagulase Negative Staphylococcus (GC 4549) (Staphylococcus sp.; strain GC 4549): 1 µg/mL (≈ 0.712 µM)
MIC Coagulase Negative Staphylococcus (GC 4551) (Staphylococcus sp.; strain GC 4551): 1 µg/mL (≈ 0.712 µM)
MIC Coagulase Negative Staphylococcus (ID-3941) (Staphylococcus sp.; strain ID-3941): 1 µg/mL (≈ 0.712 µM)
MIC Staphylococcus aureus-SMITH (GC 4543) (Staphylococcus sp.; strain SMITH GC 4543): 1 µg/mL (≈ 0.712 µM)
MIC Streptococcus agalactiae (GC 4564) (Streptococcus sp.; [7]): <0.5 µg/mL
MIC Streptococcus pneumoniae (GC 4565) (Streptococcus sp.; [8]): <0.5 µg/mL
MIC Streptococcus pyogenes (ID-3187) (Streptococcus sp.; [9]): <0.5 µg/mL
MIC Streptococcus agalactiae (GC 4564) (Streptococcus sp.; strain GC 4564): <0.5 µg/mL
MIC Streptococcus pneumoniae (GC 4565) (Streptococcus sp.; strain GC 4565): <0.5 µg/mL
MIC Streptococcus pyogenes (ID-3187) (Streptococcus sp.; strain ID-3187): <0.5 µg/mL
Structure (SMILES): CCCCCCCC1OCC2OC(OC3C(CO)OC(Oc4ccc(CC5NC(=O)C(C(C)c6ccccc6)NC(=O)CNC(=O)C(CO)NC(=O)C(C(O)C6CNC(=N)N6C6OC(CO)C(O)C(O)C6O)NC(=O)C(C(O)C6CNC(=N)N6)NC5=O)cc4)C(O)C3O)C(O)C(O)C2O1 (stereo not drawn) [Example 109, Cyclo[glycyl-β-methylphenylalanyl-O-[4-O-(4,6-O-octylidenehexopyranosyl)hexopyranosyl]-tyrosyl-3-(2-iminoimidazolidin-4-yl)seryl-3-(3-hexopyranosyl-2-iminoimidazolidin-4-yl)-serylseryl]]
MIC Staphylococcus haemolyticus (GC 4546) (Staphylococcus sp.): 1 µg/mL (≈ 0.712 µM)
MIC Staphylococcus haemolyticus (GC 4546) (Staphylococcus sp.; strain GC 4546): 1 µg/mL (≈ 0.712 µM)

MIC Enterococcus avium (GC 4558) (Enterococcus sp.; Enterococcus avium (GC 4558)): 4 µg/mL (≈ 2.9 µM)
MIC Enterococcus faecalis (ATCC 29212) (Enterococcus sp.; [1]): 4 µg/mL (≈ 2.9 µM)
MIC Enterococcus faecalis (GC 2242) (Enterococcus sp.; [2]): 2 µg/mL (≈ 1.45 µM)
MIC Enterococcus faecalis (GC 4552) (Enterococcus sp.; [3]): 4 µg/mL (≈ 2.9 µM)
MIC Enterococcus faecalis (GC 4553) (Enterococcus sp.; [4]): 4 µg/mL (≈ 2.9 µM)
MIC Enterococcus faecalis (GC 4554) (Enterococcus sp.; [5]): 2 µg/mL (≈ 1.45 µM)
MIC Enterococcus faecium (GC 2243) (Enterococcus sp.; Enterococcus faecium (GC 2243)): 4 µg/mL (≈ 2.9 µM)
MIC Enterococcus faecium (GC 4556) (Enterococcus sp.; Enterococcus faecium (GC 4556)): 2 µg/mL (≈ 1.45 µM)
MIC Enterococcus faecium (GC 4557) (Enterococcus sp.; Enterococcus faecium (GC 4557)): 2 µg/mL (≈ 1.45 µM)
MIC Enterococcus faecalis (ATCC 29212) (Enterococcus sp.; strain ATCC 29212): 4 µg/mL (≈ 2.9 µM)
MIC Enterococcus faecalis (GC 2242) (Enterococcus sp.; strain GC 2242): 2 µg/mL (≈ 1.45 µM)
MIC Enterococcus faecium (GC 2243) (Enterococcus sp.; strain GC 2243): 4 µg/mL (≈ 2.9 µM)
MIC Enterococcus faecalis (GC 4552) (Enterococcus sp.; strain GC 4552): 4 µg/mL (≈ 2.9 µM)
MIC Enterococcus faecalis (GC 4553) (Enterococcus sp.; strain GC 4553): 4 µg/mL (≈ 2.9 µM)
MIC Enterococcus faecalis (GC 4554) (Enterococcus sp.; strain GC 4554): 2 µg/mL (≈ 1.45 µM)
MIC Enterococcus faecium (GC 4556) (Enterococcus sp.; strain GC 4556): 2 µg/mL (≈ 1.45 µM)
MIC Enterococcus faecium (GC 4557) (Enterococcus sp.; strain GC 4557): 2 µg/mL (≈ 1.45 µM)
MIC Enterococcus avium (GC 4558) (Enterococcus sp.; strain GC 4558): 4 µg/mL (≈ 2.9 µM)
MIC Escherichia coli (ATCC 25922) (Escherichia coli): 64 µg/mL (≈ 46.5 µM)
MIC Coagulase Negative Staphylococcus (GC 4547) (Staphylococcus sp.): 1 µg/mL (≈ 0.726 µM)
MIC Coagulase Negative Staphylococcus (GC 4548) (Staphylococcus sp.): 1 µg/mL (≈ 0.726 µM)
MIC Coagulase Negative Staphylococcus (GC 4549) (Staphylococcus sp.): 1 µg/mL (≈ 0.726 µM)
MIC Coagulase Negative Staphylococcus (GC 4551) (Staphylococcus sp.): 1 µg/mL (≈ 0.726 µM)
MIC Coagulase Negative Staphylococcus (ID-3941) (Staphylococcus sp.): 1 µg/mL (≈ 0.726 µM)
MIC Staphylococcus aureus (ATCC 29213) (Staphylococcus sp.): 1 µg/mL (≈ 0.726 µM)
MIC Staphylococcus aureus (GC 1131) (Staphylococcus sp.): 1 µg/mL (≈ 0.726 µM)
MIC Staphylococcus aureus (GC 4541) (Staphylococcus sp.): 1 µg/mL (≈ 0.726 µM)
MIC Staphylococcus aureus (GC 4542) (Staphylococcus sp.): 1 µg/mL (≈ 0.726 µM)
MIC Staphylococcus aureus (GC 4544) (Staphylococcus sp.): 2 µg/mL (≈ 1.45 µM)
MIC Staphylococcus aureus (GC 4545) (Staphylococcus sp.): 1 µg/mL (≈ 0.726 µM)
MIC Staphylococcus aureus-SMITH (GC 4543) (Staphylococcus sp.): 1 µg/mL (≈ 0.726 µM)
MIC Staphylococcus aureus (GC 1131) (Staphylococcus sp.; [6]): 1 µg/mL (≈ 0.726 µM)
MIC Staphylococcus aureus (ATCC 29213) (Staphylococcus sp.; strain ATCC 29213): 1 µg/mL (≈ 0.726 µM)
MIC Staphylococcus aureus (GC 4541) (Staphylococcus sp.; strain GC 4541): 1 µg/mL (≈ 0.726 µM)
MIC Staphylococcus aureus (GC 4542) (Staphylococcus sp.; strain GC 4542): 1 µg/mL (≈ 0.726 µM)
MIC Staphylococcus aureus (GC 4544) (Staphylococcus sp.; strain GC 4544): 2 µg/mL (≈ 1.45 µM)
MIC Staphylococcus aureus (GC 4545) (Staphylococcus sp.; strain GC 4545): 1 µg/mL (≈ 0.726 µM)
MIC Coagulase Negative Staphylococcus (GC 4547) (Staphylococcus sp.; strain GC 4547): 1 µg/mL (≈ 0.726 µM)
MIC Coagulase Negative Staphylococcus (GC 4548) (Staphylococcus sp.; strain GC 4548): 1 µg/mL (≈ 0.726 µM)
MIC Coagulase Negative Staphylococcus (GC 4549) (Staphylococcus sp.; strain GC 4549): 1 µg/mL (≈ 0.726 µM)
MIC Coagulase Negative Staphylococcus (GC 4551) (Staphylococcus sp.; strain GC 4551): 1 µg/mL (≈ 0.726 µM)
MIC Coagulase Negative Staphylococcus (ID-3941) (Staphylococcus sp.; strain ID-3941): 1 µg/mL (≈ 0.726 µM)
MIC Staphylococcus aureus-SMITH (GC 4543) (Staphylococcus sp.; strain SMITH GC 4543): 1 µg/mL (≈ 0.726 µM)
MIC Streptococcus agalactiae (GC 4564) (Streptococcus sp.; [7]): <0.5 µg/mL
MIC Streptococcus pneumoniae (GC 4565) (Streptococcus sp.; [8]): <0.5 µg/mL
MIC Streptococcus pyogenes (ID-3187) (Streptococcus sp.; [9]): <0.5 µg/mL
MIC Streptococcus agalactiae (GC 4564) (Streptococcus sp.; strain GC 4564): <0.5 µg/mL
MIC Streptococcus pneumoniae (GC 4565) (Streptococcus sp.; strain GC 4565): <0.5 µg/mL
MIC Streptococcus pyogenes (ID-3187) (Streptococcus sp.; strain ID-3187): <0.5 µg/mL
Structure (SMILES): CC(c1ccccc1)C1NC(=O)CNC(=O)C(CO)NC(=O)C(C(O)C2CNC(=N)N2C2OC(CO)C(O)C(O)C2O)NC(=O)C(C(O)C2CNC(=N)N2)NC(=O)C(Cc2ccc(OC3OC(CO)C(OC4OC5COC(CC(C)(C)C)OC5C(O)C4O)C(O)C3O)cc2)NC1=O (stereo not drawn) [Example 110, Cyclo[glycyl-β-methylphenylalanyl-O-[4-O-[4,6-O-(3,3-dimethylbutylidene)hexopyranosyl]-hexopyranosyl]tyrosyl-3-(2-iminoimidazolidin-4-yl)seryl-3-(3-hexopyranosyl-2-iminoimidazolidin-4-yl)serylseryl]]
MIC Staphylococcus haemolyticus (GC 4546) (Staphylococcus sp.): 1 µg/mL (≈ 0.726 µM)
MIC Staphylococcus haemolyticus (GC 4546) (Staphylococcus sp.; strain GC 4546): 1 µg/mL (≈ 0.726 µM)
